Data reported in patent publication US8119627B2 (Sterix Limited, priority 2005, dated 2012).
Where a name gives a salt, the structure may show the parent alone.

Columns and labels:
human 17β-HSD3 = target: T1, human 17β-HSD3 (Homo sapiens, UniProt P37058); assay: 17β-Hydroxysteroid dehydrogenase Type 3 activity in stably transfected 293-EBNA cells (3H-androstenedione to testosterone conversion); format: cell-based; details: 10 μM test compound; 293-EBNA cells stably transfected with 17β-HSD Type 3; 2-3 nM 3H-androstenedione; 2 hours
T1 construct: expressed in transfected cells; host or cells: 293-EBNA cells (human), stably transfected
T1 sequence (P37058 1-310): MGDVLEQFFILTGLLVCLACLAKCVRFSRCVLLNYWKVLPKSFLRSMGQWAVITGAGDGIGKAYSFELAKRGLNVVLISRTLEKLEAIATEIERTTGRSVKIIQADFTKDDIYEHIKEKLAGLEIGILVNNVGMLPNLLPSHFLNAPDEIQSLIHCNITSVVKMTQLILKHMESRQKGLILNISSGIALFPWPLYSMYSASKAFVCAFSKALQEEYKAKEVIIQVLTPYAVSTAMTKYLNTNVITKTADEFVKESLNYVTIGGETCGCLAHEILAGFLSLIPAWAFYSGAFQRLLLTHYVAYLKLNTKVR
Procedure: Assay Protocol—17β-Hydroxysteroid Dehydrogenase Type 3 Activity in the Presence of Regulatory Agents
293-EBNA cells stably transfected with 17β-HSD Type 3 were plated at 50,000 cells/well in 24 well plates in complete growth medium. After 48 hours 2-3 nM ^3H-Androstenedione in assay medium (500 ml MEME medium with 5 ml 100× Pen/Strep, 5 ml 100×L-Glutamine, 5 ml 100×NEAA and 5 ml 7.5% sodium bicarbonate solution) was added with or without test compound at 1.5 ml/well (triplicate), and the cells incubated at 37° C.
Two hours later 1 ml medium was removed from each well and placed in a 125×16 mm glass test tube containing 25 μl of recovery solution (5000 dpm ^14C-Testosterone and 25 μg unlabelled Testosterone). Ether (4 ml) was added and the tubes vortexed at high speed for 2×30 sec. After the samples had settled into two phases they were snap-frozen in a dry ice/methanol bath. The upper organic phase was decanted into 75×12 mm tubes and evaporated to dryness under an airstream using a sample concentrator (TECHNE) at 40° C. The samples were resuspended in ether (8 drops, then a further 3), spotted onto silica 60 F254 20 cm×20 cm TLC plates, and separated using a 4:1 v/v dichloromethane:ethyl acetate mobile phase.
After drying the plates, the major spots were marked under a UV lamp, cut out, and placed in individual scintillation vials containing 0.5 ml methanol. These were then shaken lightly and allowed to stand for 15 min before adding 10 ml of EcoScint A (scintillation fluid) to each tube along with 0.5 ml assay medium, and counted in a scintillation spectrometer (Beckman) using a program for dual [^3H/^14C] isotopes. The number of cells/well was then counted using a Coulter counter (Beckman).
The inhibitory activity of the test compounds is then assessed by calculating the amount of product formed correcting for crossover between isotope counts, recovery, dilution and non-enzymatic degradation (fmol/hr/million cells) with and without inhibitor, (% inhibition).
Compounds were tested at 10 μM for inhibition of human 17β-HSD3 with typically […] human 293-EBNA cells/well.

SMILES	inhibition at 10 µM (human 17β-HSD3)	melting point
CC(=O)NCCC(=O)Nc1ccccc1Oc1ccc(Cl)cc1 [STX1859, N-[2-(4-chlorophenoxy)phenyl]-3-acetamidopropanamide]	< 20%	–
O=C(c1ccccc1)N1CCC(Nc2ccccc2Oc2ccc(Cl)cc2)CC1	> 60%	–
O=C(Nc1ccccc1Oc1ccc(OC(F)(F)F)cc1)C1CCN(C(=O)c2ccccc2)CC1 [STX1625, 1-Benzoyl-piperidine-4-carboxylic acid [2-(4-trifluoromethoxy-phenoxy)-phenyl]-amide]	20 to 60%	–
O=C(Nc1ccccc1Oc1ccc(Cl)cc1)C1CCN(C(=O)c2ccccc2)CC1 [STX1615, 1-Benzoylpiperidine-4-carboxylic acid [2-(4-chlorophenoxy)phenyl]amide]	< 20%	158 to 160 °C
CC(=O)N1CCC(C(=O)Nc2ccccc2Oc2ccc(Cl)cc2Cl)CC1 [STX1614, 1-Acetylpiperidine-4-carboxylic acid [2-(2,4-dichlorophenoxy)phenyl]amide]	> 60%	194 to 196 °C
O=C(c1ccccc1)N1CCC(Nc2ccccc2Oc2ccc(Cl)cc2Cl)CC1 [STX1623, {4-[2-(2,4-Dichlorophenoxy)phenylamino]piperidin-1-yl}phenylmethanone]	> 60%	–
CC(=O)N1CCC(Nc2ccccc2Oc2ccc(Cl)cc2)CC1 [STX1629, 1-{4-[2-(4-chlorophenoxy)phenylamino]-piperidin-1-yl}-ethanone]	> 60%	–
O=C(Nc1ccccc1Oc1ccc(Cl)cc1Cl)C1CCN(C(=O)c2ccccc2)CC1 [STX1613, 1-Benzoylpiperidine-4-carboxylic acid [2-(2,4-dichloro-phenoxy)phenyl]amide]	20 to 60%	176 to 177 °C
O=C(c1ccco1)N1CCC(Nc2ccccc2Oc2ccc(Cl)cc2Cl)CC1 [STX1779, {4-[2-(2,4-Dichloro-phenoxy)-phenylamino]-piperidin-1-yl}-furan-2-yl-methanone]	20 to 60%	–
CC(C)(C)C(=O)N1CCC(Nc2ccccc2Oc2ccc(Cl)cc2)CC1 [STX1631, 1-{4-[2-(4-chlorophenoxy)phenylamino]-piperidin-1-yl}-2,2-dimethylpropan-1-one]	20 to 60%	–
O=C(NC1CCN(C(=O)c2ccccc2)CC1)c1ccccc1Oc1ccc(Cl)cc1Cl	–	63 to 66 °C
CC(=O)N1CCC(Nc2ccccc2-c2ccc(Cl)cc2)CC1 [STX2044, 1-[4-(4′-Chlorobiphenyl-2-ylamino)piperidin-1-yl]ethanone]	20 to 60%	–
CC(=O)N1CCCC(Nc2ccccc2Oc2ccc(Cl)cc2)CC1 (stereo not shown) [STX1762, 1-(4-(2-(4-chlorophenoxy)phenylamino)azepan-1-yl)ethanone]	> 60%	–
CC(=O)N1CCC(C(=O)Nc2ccccc2Oc2ccc(Cl)cc2)CC1 [STX1617, 1-Acetylpiperidine-4-carboxylic acid [2-(4-chlorophenoxy)phenyl]amide]	20 to 60%	195 to 196 °C
CC(=O)N1CCC(C(=O)Nc2ccccc2Oc2cc(Cl)cc(Cl)c2)CC1 [STX1604, 1-Acetyl-piperidine-4-carboxylic acid [2-(3,5-dichloro-phenoxy)-phenyl]-amide]	20 to 60%	–
CC(=O)N1CCCC(Nc2ccccc2Oc2ccc(Cl)cc2)c2ccccc21 (stereo not shown) [STX2171, 1-Acetyl-5-[2-(4-Chloro-phenoxy)-phenylamino]-2,3,4,5-tetrahydro-benzo[b]azepine]	> 60%	–
CC(=O)N1CCC(Nc2ccccc2Oc2ccc(Cl)cc2)c2ccccc21 (stereo not shown) [STX2138]	20 to 60%	–
CC(=O)N1CCC(Nc2ccccc2Oc2ccc(Cl)cc2)CC1c1ccccc1 (stereo not shown) [STX2419, 1-(4-(2-(4-Chlorophenoxy)phenylamino)-2-phenylpiperidin-1-yl)ethanone]	20 to 60%	–
CC(=O)N1CCC(Nc2ccccc2Oc2ccc(Cl)cc2Cl)CC1 [STX1616, 1-{4-[2-(2,4-Dichlorophenoxy)phenylamino]piperidin-1-yl}ethanone]	> 60%	145 to 146 °C
CC(=O)N1CCC(C(=O)Nc2ccccc2Oc2ccc(OC(F)(F)F)cc2)CC1 [STX1624, 1-Acetyl-piperidine-4-carboxylic acid [2-(4-trifluoromethoxy-phenoxy)-phenyl]-amide]	20 to 60%	–
CC(=O)N1CC(N(Cc2ccccc2Oc2ccc(Cl)cc2)C(C)=O)Cc2ccccc21 (stereo not shown) [STX2525, N-(1-Acetyl-1,2,3,4-tetrahydro-quinolin-3-yl)-N-[2-(4-chloro-phenoxy)-benzyl]-acetamide]	20 to 60%	–
CC(=O)N1CCC(Nc2ccccc2-c2ccccc2Oc2ccccc2)CC1 [STX2048, 1-[4-(2′-Phenoxybiphenyl-2-ylamino)piperidin-1-yl]ethanone hydrochloride]	20 to 60%	–
O=C(Nc1ccccc1Oc1ccc(C(F)(F)F)cc1)C1CCN(C(=O)c2ccccc2)CC1 [STX1607, 1-Benzoyl-piperidine-4-carboxylic acid [2-(4-trifluoromethyl-phenoxy)-phenyl]-amide]	20 to 60%	–
CC(C)C(=O)N1CCC(NC(=O)c2ccccc2Oc2ccc(Cl)cc2Cl)CC1	–	51 to 54 °C
O=C(Nc1ccccc1Oc1cc(Cl)cc(Cl)c1)C1CCN(C(=O)c2ccccc2)CC1 [STX1605, 1-Benzoyl-piperidine-4-carboxylic acid [2-(3,5-dichloro-phenoxy)-phenyl]-amide]	20 to 60%	–
CC(=O)N1CCC(Nc2ccccc2Oc2ccc(Cl)cc2)CC1C(C)C (stereo not shown) [STX2523, 1-(4-(2-(4-Chlorophenoxy)phenylamino)-2-iso-propylpiperidin-1-yl)ethanone]	> 60%	–
CC(=O)NC(CC(=O)Nc1ccccc1Oc1ccc(Cl)cc1)c1ccccc1 (stereo not shown) [STX1858, N-[2-(4-chlorophenoxy)phenyl]-3-acetamido-3-phenylpropanamide]	< 20%	–
O=C(Nc1ccccc1Oc1ccc(Cl)cc1Cl)C1CCN(S(=O)(=O)c2cc(Cl)ccc2Cl)CC1	–	194 to 196 °C
CC(=O)N1CCC(C(=O)Nc2ccccc2Oc2ccc(C(F)(F)F)cc2)CC1 [STX1606, 1-Acetyl-piperidine-4-carboxylic acid [2-(4-trifluoromethyl-phenoxy)-phenyl]-amide]	20 to 60%	–
